# Like-named read-outs stand apart in the source and are kept apart here. *1 amine or outer side, *2 acyl side, *3 side chain or, on linkers, in order; H or OH if unused. Where a SMILES comes first, the peptide text is derived from it. [ ]: non-standard residue; d: D form. X3 = CC1C(C)C1C(N[*:1])C(=O)[*:2]; dGly(cPr) = N[C@@H](C(=O)O)C1CC1; Gly(cPr) = N[C@H](C(=O)O)C1CC1; NMeL = CN[CH](CC(C)C)C(=O)O; NMeA = CN[CH](C)C(=O)O; dNMeA = CN[C@H](C)C(=O)O
# Experiments:
# [1] = test system: 3T3-L1 murine adipocytes; details: literature (Shimokawa et al. 2006); cited from earlier work
# [2] = test system: oral epidermoid (KB) carcinoma cell line; experiment: Cytotoxicity assay (sulforhodamine B), KB; format: cell-based, human; details: KB cells; for IC50: 72 hours, read-out: Cytotoxic activity IC50, KB
# Description: (§4) Pure compounds are evaluated against the human cancer cell lines comprising our cytotoxicity screening panel. Cytotoxicity assays involving oral epidermoid (KB), colon (HCT116), prostate (LNCaP), breast (MCF7), Hela (cervical), leukemia (HL-60) melanoma (A375) and lung (A549) carcinoma cell lines, are performed using sulforhodamine B according to established protocols (Zhang et al., Journal of Medicinal Chemistry 2006; 49: 693-708; and Jutiviboonsuk A et al., Phytochemistry 2005; 66: 2745-2751.). KB and A375 cells are maintained in DMEM (Dulbecco's modified Eagle medium) medium. LNCaP and HL60 cells are maintained in RPMI1640 medium with hormone-free 10% heat-activated FBS (fetal bovine serum) supplemented with 0.1 nM testosterone. MCF7 and Hela cells are maintained and assayed in MEME (Minimum Essential Medium Eagle) medium containing 10 mg/L of insulin. HCT116 cells are maintained in McCoy's 5A medium supplemented with 10% fetal bovine serum. A549 cells are maintained in RPMI-1640 medium supplemented with 10% FCS. Serial dilutions of the compounds are prepared using 10% aqueous DMSO as solvent. The 190 μL cell suspension (3×10^4 cells in 1 ml media) is incubated with 10 μL sample solutions, in triplicate, in 96-well tissue culture plate at 37° C. in a humidified atmosphere of 5% CO2 in air for 72 hours. 10 μL 10% aqueous DMSO is used as control group. Then the cells are fixed to plastic substratum by the addition of 100 μL cold 20% aqueous trichloroacetic acid and washing with water after incubation at 4° C. for 30 min. After staining cells with 100 μL of 0.4% sulforhodamine B in 1% aqueous AcOH for 30 min, unbound dye is removed by rinsing with 1% aqueous AcOH. The bound dye is solubilized with 200 μL 10 mM unbuffered Tris base, pH 10, and the optical density is measured at 515 nm using an ELISA plate reader. The average data are expressed as a percentage, relative to the control. The IC50 values, the dose that inhibit cell growth by 50%, are calculated using nonlinear regression analysis (percent survival versus concentration).
# [3] = test system: prostate (LNCaP) carcinoma cell line; experiment: cells; format: cell-based, human; details: 72 hours, read-out: Cytotoxic activity IC50, LNCaP
# Description: as §4
# [4] = test system: lung (A549) carcinoma cell line; experiment: cells; format: cell-based, human; details: for IC50: 72 hours, read-out: Cytotoxic activity IC50, A549; for IC90: read-out: Cytotoxic activity IC90, A549
# Description: as §4
# [5] = test system: breast (MCF7) carcinoma cell line; experiment: cells; format: cell-based, human; details: for IC50: 72 hours, read-out: Cytotoxic activity IC50, MCF7; for IC90: read-out: Cytotoxic activity IC90, MCF7
# Description: as §4
# [6] = test system: lung cancer cell line (A549); experiment: Hollow fiber in vivo test, A549; design: species or system mouse; details: 2.0 mg/kg
# Description: (§1) Hollow fiber tests are well known in the art for providing preliminary indications of therapeutic efficacy (Mi et al. J. Nat. Prod. 2002, 65: 842-850). In hollow fiber tests, human tumor cell lines currently employed in cell cultures are grown inside semipermeable hollow fibers to form heterogeneous solid tumor models. […] By evaluating the test compound's inhibition of tumor cell growth versus the toxic response in the host, a preliminary estimate of therapeutic efficacy is provided in a cost- and time effective manner.
# [7] = test system: colon cancer cell line (HCT116); experiment: Hollow fiber in vivo test, HCT116; design: species or system mouse; details: 2.0 mg/kg
# Description: as §1
# [8] = test system: breast cancer cell line (MCF7); experiment: Hollow fiber in vivo test, MCF7; design: species or system mouse; details: 2.0 mg/kg
# Description: as §1
# [9] = test system: melanoma cancer cell line (A375); experiment: Hollow fiber in vivo test, A375; design: species or system mouse; details: 2.0 mg/kg
# Description: as §1
# [10] = test system: cervical cancer cell line (Hela); experiment: Hollow fiber in vivo test, Hela; design: species or system mouse; details: 2.0 mg/kg
# Description: as §1
# [11] = test system: HCT116-tumor xenograft; experiment: HCT116 xenograft mouse model; format: in vivo; details: 5 mg/kg, every other day for 21 days
# Description: The treatment started on the 6th day when the HCT116-tumor reached approximately 100 mm^3 (L×W×W). […] All mice died for the maytansine group after the initial two treatments at the dose of 0.1 mg/kg, indicating the highly toxicity of maytansine.
# [12] = test system: MCF7-tumor xenograft; experiment: MCF7 xenograft mouse model; details: 5 mg/kg, twice a week for 3 weeks
# Description: The treatment started on the 12th day when the MCF7-tumor size reached approximately 100 mm^3 (L×W×H). Two doses of MV-A (1.0 and 2.0 mg/kg), paclitaxel (5 mg/kg), and vehicle were administered via i.p. (intraperitoneal), i.v. (intravenous), or oral respectively, to the tumor-bearing mice twice a week for 3 weeks ([…]).
# Antitumor animal study. All animal studies were approved and performed according to Animal Care and Use Guidelines of the Animal Ethics Committee at Hong Kong Baptist University and performed following Animal Care and Use guidelines set by NIH (National Institute of Health, USA). BALB/c nude mice, SPF class, male or female, 5-6 weeks old, were purchased from Charles River Laboratories. Before the experiment, it is one week of acclimatization to SPF class laboratory conditions. MV-A is tested for its anticancer activity against HCT116 and MCF7 cancer cells using a number of nude mice (Balc/nu/nu, female) in comparison of paclitaxel and maytansine. HCT116 or MCF7 cancer cells are subcutaneously implanted with 5×10^6 cells in the rear flank of each mouse. Female mice receiving MCF-7 cells are implanted with an s.c. pellet of 17β-estradiol (0.72 mg/pellet) a few days prior to injection to induce tumors. […] The mice are divided into 5 groups for HCT116 cancer cells: one high dose (1.0 mg/kg: 10 mice) group of MV-A, one low dose (0.5 mg/kg: 10 mice) group of MV-A, one dose (5.0 mg/kg: 10 mice) of paclitaxel, one dose of maytansine (0.1 mg/kg) and one dose of vehicle (negative control: 10 mice). The mice are then divided into 4 groups for MCF7 cancer cells: one high dose (2.0 mg/kg: 10 mice) group of MV-A, one low dose (1.0 mg/kg: 10 mice) group of MV-A, one dose (5.0 mg/kg: 10 mice) of paclitaxel, and one dose of vehicle (negative control: 10 mice). Every other day administration via i.p. (intraperitoneal), i.v. (intravenous), or oral, respectively are scheduled for 21 days for the HCT116 groups. Twice a week injections administered via i.p. (intraperitoneal), i.v. (intravenous), or oral, respectively are scheduled for […] for the MCF7 groups. Weights of mice and tumor diameters are measured twice a week until the end of the experiment. The tumor size in mm^3 was calculated by the formula: tumor size=length×width×height (L×W×H).
# [13] = test system: colon (HCT116) carcinoma cell line; experiment: Cytotoxicity assay (sulforhodamine B), HCT116; details: for IC50: read-out: Cytotoxic activity IC50, HCT116
# Description: as §4
# [14] = test system: murine P388 leukemia cells; details: at a concentration of 10 ng/mL
# [15] = Body weight of mice after drug treatment; details: for Drop of average weight of mice after the first treatment: i.p. injection; for Drop of average weight of mice after six treatments: twice a week
# [16] = test system: 3T3-L1 murine adipocytes; experiment: 3T3-L1 fat accumulation (triglyceride) assay; format: cell-based; details: differentiated 3T3-L1 adipocytes, 7 days, read-out: Anti-obesity activity (fat accumulation) EC50
# Description: (§2) MV-A, MV-B, MV-C and MV-D are evaluated for their anti-obesity effects in 3T3-L1 murine adipocytes. 3T3-L1 cells are cultured in the presence of insulin to induce adipocyte differentiation.
# (§3) Pure compounds are evaluated against 3T3-L1 cell line for their potential anti-obesity activity. […] After the cells reach 100% confluence, the culture medium is changed to a differentiation DMEM medium containing 10% FCS, […], 0.5 mM 3-isobutyl-1-methylxanthine (IBMX), 90 U/mL penicillin, […] and 10 μg/mL insulin for induction of the adipocyte form of the 3T3-L1 cells. After 2 days, the differentiation medium is changed back to the normal DMEM medium and refreshed with the normal medium every 2 days. After incubation of additional 7 days, the cells are seeded in two sets of 96-well plates (about 10,000 cells per well). The test compounds in different concentrations are then added to the wells with 0.5% aqueous DMSO as control group. After incubation of 7 days, the differentiated 3T3-L1 adipocytes are treated with 2% Triton-X 100 ([…]) for 30 min at room temperature followed by sonication for 1 min. Fat accumulation is determined by measuring the liberated triglyceride using a Wato Triglyceride E-test Kit with the absorbance at 630/690 nm. The fat-accumulation rate is calculated as a percentage of the DMSO control. […] The cell viability of the differentiated 3T3-L1 adipocytes in another 96-well plate is treated with a Wako Cell Counting Kit-8 Test and measured with the absorbance at 450 nm. The cell viability is calculated as a percentage of the control.
# [17] = test system: 3T3-L1 murine adipocytes; experiment: 3T3-L1 adipocyte cell viability; format: cell-based; details: differentiated 3T3-L1 adipocytes
# Description: as §2, §3
# [18] = test system: panel of cancer cell lines comprising KB, HCT116, LNCaP, A549, MCF7, HL60, Hela and A375; details: at 2 μM
# [19] = test system: HIV (human immunodeficiency virus)
molecule,measurement,setting,value
Ternatin,Inhibition of fat accumulation against 3T3-L1 murine adipocytes,[1],potent inhibitor of fat accumulation
"CC(=O)O[C@H]1C(=O)[C@@]2(C)[C@H]([C@H](OC(=O)c3ccccc3)[C@]3(O)C[C@H](OC(=O)[C@H](O)[C@@H](NC(=O)c4ccccc4)c4ccccc4)C(C)=C1C3(C)C)[C@]1(OC(C)=O)CO[C@@H]1C[C@@H]2O [Paclitaxel, reference compound]",IC50,[2]; Homo sapiens,3.38 nM
same,"Cytotoxic activity IC90, KB",[2],>20 nM
same,IC50,[3]; Homo sapiens,15.9 nM
same,IC50,[4]; Homo sapiens,4.81 nM
same,IC90,[4]; Homo sapiens,> 20 nM
same,IC50,[5]; Homo sapiens,3.24 nM
same,IC90,[5]; Homo sapiens,> 30 nM
same,Inhibition (%),[6]; A549-IP,39.8%
same,Inhibition (%),[6]; A549-SC,0%
same,Inhibition (%),[7]; HCT116-IP,60.4%
same,Inhibition (%),[7]; HCT116-SC,0%
same,Inhibition (%),[8]; MCF7-IP,70.7%
same,Inhibition (%),[8]; MCF7-SC,0%
same,Inhibition (%),[9]; A375-IP,38.1%
same,Inhibition (%),[9]; A375-SC,7.8%
same,Inhibition (%),[10]; Hela-IP,69.5%
same,Inhibition (%),[10]; Hela-SC,11.1%
same,Inhibition of HCT116 tumor growth (excised tumor weights),[11],37.6%
same,Inhibition of MCF7 tumor growth (excised tumor weights),[12],28.2%
same,IC50,"[13]; Homo sapiens, HCT-116, 72 h",5.78 nM
same,IC90,"[13]; Homo sapiens, HCT-116, read-out: Cytotoxic activity IC90, HCT116",> 20 nM
CC(C)CC1NC(=O)C(C)N(C)C(=O)C(C)N(C)C(=O)C(C2C(C)C2C)NC(=O)C(CC(C)C)N(C)C(=O)C(C)N(C)C(=O)C(C2C(C)C2C)NC1=O (centres unmarked) [Compound 1] (cyclo([X3][NMeA][NMeA]L[X3][NMeA][NMeL]); configuration not given here),"Cytotoxic activity IC90, KB",[2],1.65 nM
same,IC50,[2],0.05 nM
same,IC50,[3],0.42 nM
same,IC50,[4],0.24 nM
same,IC90,[4],1.02 nM
same,IC50,[5],0.26 nM
same,IC90,[5],1.47 nM
same,Inhibition of cell growth of murine P388 leukemia cells,[14],100%
same,Mortality during the treatments,[15]; 1 mg/kg and 2 mg/kg,No mice die
same,Toxicity observed from dissection of the mice,[15]; 1 mg/kg and 2 mg/kg,No sign of toxicity
same,Drop of average weight of mice after the first treatment,[15]; 1 mg/kg,1.5 g
same,Drop of average weight of mice after the first treatment,[15]; 2 mg/kg,2.2 g
same,Drop of average weight of mice after six treatments,[15]; 1 mg/kg,1.7 g
same,Drop of average weight of mice after six treatments,[15]; 2 mg/kg,4.7 g
same,IC50,"[13]; HCT116 cells, 72 hours",0.25 nM
same,IC90,"[13]; read-out: Cytotoxic activity IC90, HCT116, HCT116 cells",0.69 nM
CC(C)C[C@H]1NC(=O)[C@@H](C)N(C)C(=O)[C@H](C)N(C)C(=O)[C@H](C2CC2)NC(=O)[C@H](CC(C)C)N(C)C(=O)[C@H](C)N(C)C(=O)[C@@H](C2CC2)NC1=O [MV-D] (cyclo([Gly(cPr)][NMeA][dNMeA][dL][dGly(cPr)][NMeA][NMeL])),EC50,[16],13.3 nM
same,IC50,[17],> 5000 nM
same,Inhibition activity against the cancer cells,[18],no inhibition activity
same,IC50,[19],1240 nM
CC(C)CC1NC(=O)C(C)N(C)C(=O)C(C)N(C)C(=O)C(C2C(C)C2C)NC(=O)C(CC(C)CO)N(C)C(=O)C(C)N(C)C(=O)C(C2C(C)C2C)NC1=O (centres unmarked) [Compound 2],"Cytotoxic activity IC90, KB",[2],11.4 nM
same,IC50,[2],0.79 nM
same,IC50,[4],6.35 nM
same,IC90,[4],6.84 nM
same,IC50,[5],5.83 nM
same,IC90,[5],9.21 nM
same,Inhibition of cell growth of murine P388 leukemia cells,[14],100%
same,IC50,"[13]; HCT116 cells, 72 hours",2.62 nM

# — US9963485B2, “Cycloheptapeptide agents for treatment of cancer and obesity diseases” (Hong Kong Baptist University, priority 2012, dated 2018)
